Key:
Experiment in all cases: biochemical
Format in all cases: binding
[1] = biological target: panel of 468 diverse kinases (Homo sapiens, UniProt Q9BVS4); details: RIOK2; 1000 nM; read-out: Percent Control
[2] = biological target: panel of 468 diverse kinases (Homo sapiens, UniProt P08922); details: ROS1; 1000 nM; read-out: Percent Control
[3] = biological target: panel of 468 diverse kinases (Homo sapiens, UniProt O95835); details: LATS1; 1000 nM; read-out: Percent Control
[4] = biological target: panel of 468 diverse kinases (Homo sapiens, UniProt Q02750); details: MEK1; 1000 nM; read-out: Percent Control
[5] = biological target: panel of 468 diverse kinases (Homo sapiens, UniProt P22607, G697C); details: FGFR3(G697C); 1000 nM; read-out: Percent Control
[6] = biological target: panel of 468 diverse kinases (Homo sapiens, UniProt Q8TDC3); details: BRSK1; 1000 nM; read-out: Percent Control
[7] = biological target: panel of 468 diverse kinases (Homo sapiens, UniProt P35916); details: FLT4; 1000 nM; read-out: Percent Control
[8] = biological target: panel of 468 diverse kinases (Homo sapiens, UniProt Q6DT37); details: DMPK2; 1000 nM; read-out: Percent Control
[9] = biological target: panel of 468 diverse kinases (Homo sapiens, UniProt P22455); details: FGFR4; 1000 nM; read-out: Percent Control
[10] = biological target: panel of 468 diverse kinases (Homo sapiens, UniProt P48736); details: PIK3CG; 1000 nM; read-out: Percent Control
[11] = biological target: panel of 468 diverse kinases (Homo sapiens, UniProt Q9BUB5); details: MKNK1; 1000 nM; read-out: Percent Control
[12] = biological target: panel of 468 diverse kinases (Homo sapiens, UniProt P15056); details: BRAF; 1000 nM; read-out: Percent Control
[13] = biological target: panel of 468 diverse kinases (Homo sapiens, UniProt O00141); details: SGK; 1000 nM; read-out: Percent Control
[14] = biological target: panel of 468 diverse kinases (Homo sapiens, UniProt P31751); details: AKT2; 1000 nM; read-out: Percent Control
[15] = biological target: panel of 468 diverse kinases (Homo sapiens, UniProt Q9P2K8, S808G); details: GCN2(Kin.Dom.2, S808G); 1000 nM; read-out: Percent Control
[16] = biological target: panel of 468 diverse kinases (Homo sapiens, UniProt P57058); details: HUNK; 1000 nM; read-out: Percent Control
[17] = biological target: panel of 468 diverse kinases (Homo sapiens, UniProt P42336, M1043I); details: PIK3CA(M1043I); 1000 nM; read-out: Percent Control
[18] = biological target: panel of 468 diverse kinases (Homo sapiens, UniProt P42685); details: FRK; 1000 nM; read-out: Percent Control
[19] = biological target: panel of 468 diverse kinases (Homo sapiens, UniProt Q8IVW4); details: CDKL3; 1000 nM; read-out: Percent Control
[20] = biological target: panel of 468 diverse kinases (Homo sapiens, UniProt Q12852); details: DLK; 1000 nM; read-out: Percent Control
[21] = biological target: panel of 468 diverse kinases (Homo sapiens, UniProt P36507); details: MEK2; 1000 nM; read-out: Percent Control
[22] = biological target: panel of 468 diverse kinases (Homo sapiens, UniProt Q96BR1); details: SGK3; 1000 nM; read-out: Percent Control
[23] = biological target: panel of 468 diverse kinases (Homo sapiens, UniProt Q13523); details: PRP4; 1000 nM; read-out: Percent Control
[24] = biological target: panel of 468 diverse kinases (Homo sapiens, UniProt Q08881); details: ITK; 1000 nM; read-out: Percent Control
[25] = biological target: panel of 468 diverse kinases (Homo sapiens, UniProt Q9UQ88); details: CDC2L2; 1000 nM; read-out: Percent Control
[26] = biological target: panel of 468 diverse kinases (Homo sapiens, UniProt Q12851); details: MAP4K2; 1000 nM; read-out: Percent Control
[27] = biological target: panel of 468 diverse kinases (Homo sapiens, UniProt Q9H3Y6); details: SRMS; 1000 nM; read-out: Percent Control
[28] = biological target: panel of 468 diverse kinases (Homo sapiens, UniProt Q8NI60); details: ADCK3; 1000 nM; read-out: Percent Control
[29] = biological target: panel of 468 diverse kinases (Homo sapiens, UniProt P29323); details: EPHB2; 1000 nM; read-out: Percent Control
[30] = biological target: panel of 468 diverse kinases (Homo sapiens, UniProt P42684); details: ABL2; 1000 nM; read-out: Percent Control
[31] = biological target: panel of 468 diverse kinases (Homo sapiens, UniProt P29376); details: LTK; 1000 nM; read-out: Percent Control

panel of 468 diverse kinases (Homo sapiens, UniProt P15056), sequence (P15056 2-766 limits assumed): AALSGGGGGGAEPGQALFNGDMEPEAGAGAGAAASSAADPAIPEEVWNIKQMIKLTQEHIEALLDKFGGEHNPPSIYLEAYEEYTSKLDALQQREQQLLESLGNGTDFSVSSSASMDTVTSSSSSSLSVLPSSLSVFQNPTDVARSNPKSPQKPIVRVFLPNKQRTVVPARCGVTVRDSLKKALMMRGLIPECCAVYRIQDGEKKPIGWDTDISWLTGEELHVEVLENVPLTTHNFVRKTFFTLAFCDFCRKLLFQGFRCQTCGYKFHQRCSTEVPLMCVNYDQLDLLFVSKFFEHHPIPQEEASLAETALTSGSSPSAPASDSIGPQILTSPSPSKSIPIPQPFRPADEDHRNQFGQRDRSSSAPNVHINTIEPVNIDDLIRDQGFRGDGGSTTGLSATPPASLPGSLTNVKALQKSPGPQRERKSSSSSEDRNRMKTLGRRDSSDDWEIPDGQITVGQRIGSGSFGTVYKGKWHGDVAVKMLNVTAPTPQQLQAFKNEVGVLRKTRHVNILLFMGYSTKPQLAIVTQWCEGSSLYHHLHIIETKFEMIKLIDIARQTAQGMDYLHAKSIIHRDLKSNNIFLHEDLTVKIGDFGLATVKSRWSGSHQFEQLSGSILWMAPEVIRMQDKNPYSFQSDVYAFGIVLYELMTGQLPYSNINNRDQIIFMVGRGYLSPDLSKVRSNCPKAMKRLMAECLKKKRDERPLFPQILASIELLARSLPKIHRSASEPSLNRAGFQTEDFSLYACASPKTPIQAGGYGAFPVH
panel of 468 diverse kinases (Homo sapiens, UniProt P42684), sequence (P42684 2-1182 limits assumed): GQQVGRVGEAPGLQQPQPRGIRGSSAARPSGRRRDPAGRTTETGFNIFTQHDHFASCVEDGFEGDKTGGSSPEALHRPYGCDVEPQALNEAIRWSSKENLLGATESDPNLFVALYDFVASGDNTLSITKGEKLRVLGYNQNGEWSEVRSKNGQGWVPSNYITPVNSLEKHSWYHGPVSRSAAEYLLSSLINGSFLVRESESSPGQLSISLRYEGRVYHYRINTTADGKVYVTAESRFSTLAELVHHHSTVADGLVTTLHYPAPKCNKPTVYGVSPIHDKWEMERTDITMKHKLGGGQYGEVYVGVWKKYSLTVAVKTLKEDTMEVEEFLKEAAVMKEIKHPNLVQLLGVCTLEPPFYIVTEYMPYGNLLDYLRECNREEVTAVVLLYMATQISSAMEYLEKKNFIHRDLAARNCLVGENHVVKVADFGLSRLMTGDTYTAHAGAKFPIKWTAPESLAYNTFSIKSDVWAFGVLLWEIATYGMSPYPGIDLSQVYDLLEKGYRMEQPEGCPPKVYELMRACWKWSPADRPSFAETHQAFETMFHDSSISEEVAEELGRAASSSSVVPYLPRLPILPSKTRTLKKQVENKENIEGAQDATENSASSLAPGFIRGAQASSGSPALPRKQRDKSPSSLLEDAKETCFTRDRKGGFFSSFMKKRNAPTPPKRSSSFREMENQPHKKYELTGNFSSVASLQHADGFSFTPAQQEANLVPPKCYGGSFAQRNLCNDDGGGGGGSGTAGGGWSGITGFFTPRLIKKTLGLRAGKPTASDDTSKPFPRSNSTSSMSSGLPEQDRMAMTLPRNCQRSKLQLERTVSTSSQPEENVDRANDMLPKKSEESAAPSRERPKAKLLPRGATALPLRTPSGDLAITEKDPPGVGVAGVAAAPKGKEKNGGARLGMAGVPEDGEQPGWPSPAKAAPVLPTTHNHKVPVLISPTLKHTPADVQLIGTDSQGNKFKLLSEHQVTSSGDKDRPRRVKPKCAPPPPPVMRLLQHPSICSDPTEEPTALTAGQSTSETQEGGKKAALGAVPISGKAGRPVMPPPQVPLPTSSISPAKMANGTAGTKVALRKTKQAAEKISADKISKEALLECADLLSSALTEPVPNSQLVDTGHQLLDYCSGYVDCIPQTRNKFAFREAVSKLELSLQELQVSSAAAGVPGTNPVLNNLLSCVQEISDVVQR
panel of 468 diverse kinases (Homo sapiens, UniProt Q8NI60), sequence (Q8NI60 163-647 limits assumed): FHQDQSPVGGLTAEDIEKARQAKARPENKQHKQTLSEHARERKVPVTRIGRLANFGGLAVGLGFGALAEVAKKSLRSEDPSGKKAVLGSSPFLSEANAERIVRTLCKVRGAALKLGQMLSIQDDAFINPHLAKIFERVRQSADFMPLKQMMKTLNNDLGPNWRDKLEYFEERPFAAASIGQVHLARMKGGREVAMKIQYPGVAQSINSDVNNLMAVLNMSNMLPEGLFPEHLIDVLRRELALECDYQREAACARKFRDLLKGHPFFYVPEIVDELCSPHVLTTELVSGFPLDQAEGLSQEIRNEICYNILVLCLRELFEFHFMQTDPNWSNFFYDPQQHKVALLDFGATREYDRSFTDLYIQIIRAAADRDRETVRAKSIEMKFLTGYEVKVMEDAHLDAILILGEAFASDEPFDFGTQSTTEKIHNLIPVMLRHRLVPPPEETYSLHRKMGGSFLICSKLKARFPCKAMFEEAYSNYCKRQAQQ
panel of 468 diverse kinases (Homo sapiens, UniProt P22607, G697C), sequence (P22607 23-806 G697C limits assumed): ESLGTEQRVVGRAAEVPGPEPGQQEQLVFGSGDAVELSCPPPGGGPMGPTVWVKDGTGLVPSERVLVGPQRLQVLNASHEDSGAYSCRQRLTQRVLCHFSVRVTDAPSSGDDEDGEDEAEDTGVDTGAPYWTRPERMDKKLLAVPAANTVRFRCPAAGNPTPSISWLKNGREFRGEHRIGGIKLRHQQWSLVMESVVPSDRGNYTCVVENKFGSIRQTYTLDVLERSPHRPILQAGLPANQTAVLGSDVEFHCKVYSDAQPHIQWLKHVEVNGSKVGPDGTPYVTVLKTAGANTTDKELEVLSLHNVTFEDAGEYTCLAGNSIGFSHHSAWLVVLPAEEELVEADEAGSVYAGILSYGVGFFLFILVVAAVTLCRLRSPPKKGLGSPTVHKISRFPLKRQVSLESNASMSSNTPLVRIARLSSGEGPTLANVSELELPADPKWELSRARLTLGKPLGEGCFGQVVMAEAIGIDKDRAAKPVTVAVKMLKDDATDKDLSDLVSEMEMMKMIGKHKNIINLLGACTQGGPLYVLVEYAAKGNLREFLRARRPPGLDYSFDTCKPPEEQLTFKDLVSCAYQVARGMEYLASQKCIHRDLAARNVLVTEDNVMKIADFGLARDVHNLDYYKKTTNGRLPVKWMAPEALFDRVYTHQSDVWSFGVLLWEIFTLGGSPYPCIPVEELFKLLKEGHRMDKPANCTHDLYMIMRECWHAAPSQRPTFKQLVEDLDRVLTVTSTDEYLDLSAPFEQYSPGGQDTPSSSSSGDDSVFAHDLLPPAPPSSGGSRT
panel of 468 diverse kinases (Homo sapiens, UniProt P35916), sequence (P35916 25-1363 limits assumed): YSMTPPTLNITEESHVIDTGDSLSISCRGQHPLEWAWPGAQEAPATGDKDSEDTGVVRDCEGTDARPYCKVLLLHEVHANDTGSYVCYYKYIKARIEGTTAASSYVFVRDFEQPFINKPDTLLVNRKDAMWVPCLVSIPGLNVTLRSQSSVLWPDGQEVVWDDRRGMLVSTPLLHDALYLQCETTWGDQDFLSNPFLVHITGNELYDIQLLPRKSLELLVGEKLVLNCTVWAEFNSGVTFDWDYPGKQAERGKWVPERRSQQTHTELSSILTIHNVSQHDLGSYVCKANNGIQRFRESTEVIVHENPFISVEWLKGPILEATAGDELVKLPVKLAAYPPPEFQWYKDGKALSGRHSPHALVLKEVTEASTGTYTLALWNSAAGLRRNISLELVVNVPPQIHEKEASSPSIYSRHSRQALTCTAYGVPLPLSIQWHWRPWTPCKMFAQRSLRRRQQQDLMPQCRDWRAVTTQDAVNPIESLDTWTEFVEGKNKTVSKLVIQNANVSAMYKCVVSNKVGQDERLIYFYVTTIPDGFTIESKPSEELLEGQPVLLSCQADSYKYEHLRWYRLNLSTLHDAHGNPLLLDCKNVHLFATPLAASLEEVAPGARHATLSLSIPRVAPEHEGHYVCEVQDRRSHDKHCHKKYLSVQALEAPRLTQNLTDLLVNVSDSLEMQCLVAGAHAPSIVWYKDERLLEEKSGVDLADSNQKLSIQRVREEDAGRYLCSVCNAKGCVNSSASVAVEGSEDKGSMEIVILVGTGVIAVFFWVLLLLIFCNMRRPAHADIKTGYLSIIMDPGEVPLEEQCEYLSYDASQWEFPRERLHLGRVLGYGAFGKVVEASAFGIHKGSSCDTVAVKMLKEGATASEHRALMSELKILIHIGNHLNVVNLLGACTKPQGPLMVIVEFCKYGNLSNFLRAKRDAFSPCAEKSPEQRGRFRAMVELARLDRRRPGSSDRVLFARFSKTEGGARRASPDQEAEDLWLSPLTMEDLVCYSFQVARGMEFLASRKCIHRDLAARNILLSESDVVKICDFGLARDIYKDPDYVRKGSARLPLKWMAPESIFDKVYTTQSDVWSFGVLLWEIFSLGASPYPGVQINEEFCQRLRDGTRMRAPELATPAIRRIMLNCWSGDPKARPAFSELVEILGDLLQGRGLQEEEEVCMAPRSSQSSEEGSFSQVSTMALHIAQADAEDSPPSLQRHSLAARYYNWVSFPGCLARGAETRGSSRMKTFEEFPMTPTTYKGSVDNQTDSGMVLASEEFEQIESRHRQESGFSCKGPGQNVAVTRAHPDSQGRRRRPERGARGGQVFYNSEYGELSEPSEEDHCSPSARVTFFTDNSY

COc1cc2nc(NC3CC3)nc(NC3CCN(C(C)C)CC3)c2cc1OC [Formula IV]
remaining activity at 1 µM [1]: 80%
remaining activity at 1 µM [2]: 90%
remaining activity at 1 µM [3]: 100%
remaining activity at 1 µM [4]: 63%
remaining activity at 1 µM [5]: 100%
remaining activity at 1 µM [6]: 92%
remaining activity at 1 µM [7]: 80%
remaining activity at 1 µM [8]: 99%
remaining activity at 1 µM [9]: 100%
remaining activity at 1 µM [10]: 83%
remaining activity at 1 µM [11]: 100%
remaining activity at 1 µM [12]: 88%
remaining activity at 1 µM [13]: 68%
remaining activity at 1 µM [14]: 89%
remaining activity at 1 µM [15]: 94%
remaining activity at 1 µM [16]: 74%
remaining activity at 1 µM [17]: 83%
remaining activity at 1 µM [18]: 100%
remaining activity at 1 µM [19]: 66%
remaining activity at 1 µM [20]: 62%
remaining activity at 1 µM [21]: 58%
remaining activity at 1 µM [22]: 60%
remaining activity at 1 µM [23]: 84%
remaining activity at 1 µM [24]: 96%
remaining activity at 1 µM [25]: 99%
remaining activity at 1 µM [26]: 87%
remaining activity at 1 µM [27]: 89%
remaining activity at 1 µM [28]: 100%
remaining activity at 1 µM [29]: 70%
remaining activity at 1 µM [30]: 98%
remaining activity at 1 µM [31]: 82%

Source: patent US11542240B2, “STK19 inhibitors for treatment of cancer” (TRUSTEES OF BOSTON UNIVERSITY, priority 2018, dated 2023)
